Laboratory results published in patent US12583866B2, “Pyrido[2,3-b][1,4]oxazines or tetrahydropyrido[2,3-b][1,4]oxazepines as IAP antagonists” (BEIGENE, LTD., priority 2020, dated 2026).
Structures can show the parent of a compound that is named as a salt.

Experiments:
[1] = target: T1, recombinant human XIAP-BIR3 protein (Homo sapiens, UniProt P98170); test: Recombinant human XIAP-BIR3 biochemical assay (HTRF, peptide displacement); details: 3.7 nM XIAP-BIR3, 7.6 nM AbuRPF-K(5-Fam)-NH2 peptide, read-out: Protein binding IC50 (nM) XIAP
T1 construct: recombinant human XIAP-BIR3 protein; purchased Reaction biology APT-11-374
Procedure, shortened: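 HTRF peptide displacement with 7.6 nM 5-Fam-labelled AbuRPF peptide, anti-6His Tb donor and 3.7 nM recombinant XIAP-BIR3. Protein and compound (10-point, 4-fold from 10 µM) were preincubated 1 h RT in HEPES pH 7.5 buffer before each addition, each 1 h. IC50 by four-parameter fit of the 520/490 nm ratio.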

[2] = target: T2, recombinant human cIAP2-BIR3 protein (Homo sapiens, UniProt Q13489); test: Recombinant human c-IAP2-BIR3 biochemical assay (HTRF, peptide displacement); details: 3.7 nM cIAP2-BIR3, 3.7 nM AbuRPF-K(5-Fam)-NH2 peptide, read-out: Protein binding IC50 (nM) c-IAP2
T2 construct: recombinant human cIAP2-BIR3 protein; purchased Reaction biology APT-11-372
Procedure, shortened: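 HTRF peptide-displacement readout (ex337, em520/490 ratio) after sequential 1 h room-temperature steps: compound with 3.7 nM protein, then 3.7 nM 5-Fam-labelled AbuRPF peptide, then Tb-cryptate anti-6His antibody. Buffer pH 7.5 HEPES with NaCl, Tween-20, DTT; 10-point 4-fold dilutions from 10 uM; four-parameter logistic IC50.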

[3] = target: T3, recombinant human cIAP1-BIR3 protein (Homo sapiens, UniProt Q13490); test: Recombinant human c-IAP1-BIR3 biochemical assay (HTRF, peptide displacement); details: 1.2 nM cIAP1-BIR3, 3 nM AbuRPF-K(5-Fam)-NH2 peptide, read-out: Protein binding IC50 (nM) c-IAP1
T3 construct: recombinant human cIAP1-BIR3 protein; purchased Reaction biology APT-11-370
Procedure, shortened: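 HTRF peptide displacement: after 1 h compound pre-incubation (max 10 uM, 4-fold dilutions, 10 points) with 1.2 nM protein in HEPES pH 7.5 buffer, 3 nM 5-Fam-labelled AbuRPF-K peptide and Tb-anti-6His were each added for 1 h at room temperature. Inhibition taken from 520/490 nm ratio, fitted four-parameter logistic for IC50.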

T3 sequence (Q13490 253-363 limits assumed): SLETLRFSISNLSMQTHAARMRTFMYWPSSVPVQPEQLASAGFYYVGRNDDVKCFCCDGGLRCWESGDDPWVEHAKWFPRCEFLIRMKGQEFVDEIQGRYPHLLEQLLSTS
T2 sequence (Q13489 238-349 limits assumed): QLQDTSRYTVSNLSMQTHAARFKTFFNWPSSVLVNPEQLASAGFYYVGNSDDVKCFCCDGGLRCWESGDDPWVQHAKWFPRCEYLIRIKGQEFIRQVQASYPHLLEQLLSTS
T1 sequence (P98170 241-356 limits assumed): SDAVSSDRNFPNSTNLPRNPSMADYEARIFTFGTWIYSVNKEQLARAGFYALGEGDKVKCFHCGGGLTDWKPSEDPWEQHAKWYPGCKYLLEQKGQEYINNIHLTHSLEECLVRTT

Structure (SMILES)	IC50 [1] [nM]	IC50 [2] [nM]	IC50 [3] [nM]
C[C@@H]1CN(CC(=O)N2c3cc(Cc4ccc(F)cc4)c(C(=O)Nc4ccc(F)cc4)nc3OC[C@@H]2C)[C@@H](CN2[C@H](C)COC[C@H]2C)CN1 [Example 71, (S)-1-(2-((2R,5R)-2-(((3R,5R)-3,5-dimethylmorpholino)methyl)-5-methylpiperazin-1-yl)acetyl)-7-(4-fluorobenzyl)-N-(4-fluorophenyl)-2-methyl-2,3-dihydro-1H-pyrido[2,3-b][1,4]oxazine-6-carboxamide]	7.9	0.57	0.26
C[C@@H]1CN(CC(=O)N2CCOc3ncc(Cc4ccc(F)cc4)cc32)[C@@H](CN2C[C@@H]3C[C@H]2CO3)CN1 [Compound 13, 2-((2R,5R)-2-(((1S,45)-2-oxa-5-azabicyclo[2.2.1]heptan-5-yl)methyl)-5-methylpiperazin-1-yl)-1-(7-(4-fluorobenzyl)-2,3-dihydro-1H-pyrido[2,3-b][1,4]oxazin-1-yl)ethan-1-one]	24	1.5	1.02
C[C@@H]1CN(CC(=O)N2c3cc(Cc4ccc(F)cc4)cnc3OC[C@@H]2COc2ccccc2)[C@@H](CN2CCOC[C@H]2C)CN1 [Compound 41]	12	0.24	0.11
CC(C)OC[C@@H]1COCCN1C[C@H]1CN[C@H](C)CN1CC(=O)N1c2cc(Cc3ccc(F)cc3)c(C(N)=O)nc2OC[C@@H]1C [Example 62, (S)-7-(4-fluorobenzyl)-1-(2-((2R,5R)-2-(((S)-3-(isopropoxymethyl)morpholino)methyl)-5-methylpiperazin-1-yl)acetyl)-2-methyl-2,3-dihydro-1H-pyrido[2,3-b][1,4]oxazine-6-carboxamide]	8.1	0.73	0.33
C[C@@H]1CN(CC(=O)N2c3cc(Cc4ccc(F)cc4F)c(C(N)=O)nc3OC[C@@H]2C)[C@@H](CN2[C@H](C)COC[C@H]2C)CN1 [Example 83, (S)-7-(2,4-difluorobenzyl)-1-(2-((2R,5R)-2-(((3R,5R)-3,5-dimethylmorpholino)methyl)-5-methylpiperazin-1-yl)acetyl)-2-methyl-2,3-dihydro-1H-pyrido[2,3-b][1,4]oxazine-6-carboxamide]	7.2	0.4	0.2
C[C@@H]1CN(CC(=O)N2c3cc(Cc4ccc(F)cc4)cnc3OC[C@@H]2c2ccccc2)[C@@H](CN2[C@H](C)COC[C@H]2C)CN1 [Compound 44]	20	0.93	0.36
C[C@@H]1CN(CC(=O)N2c3cc(Cc4ccc(F)cc4)c(C(N)=O)nc3OC[C@@H]2C)[C@@H](CN2CCOCC2(C)C)CN1 [Example 61, (S)-1-(2-((2R,5R)-2-((3,3-dimethylmorpholino)methyl)-5-methylpiperazin-1-yl)acetyl)-7-(4-fluorobenzyl)-2-methyl-2,3-dihydro-1H-pyrido[2,3-b][1,4]oxazine-6-carboxamide]	14	1.08	0.43
C[C@@H]1CN(CC(=O)N2CC(C)(C)Oc3nc(Br)c(Cc4ccc(F)cc4)cc32)[C@@H](CN2CCOC[C@H]2C)CN1 [Compound 12, 1-(6-bromo-7-(4-fluorobenzyl)-3,3-dimethyl-2,3-dihydro-1H-pyrido[2,3-b][1,4]oxazin-1-yl)-2-((2R,5R)-5-methyl-2-(((R)-3-methylmorpholino)methyl)piperazin-1-yl)ethan-1-one]	561	44	16
C[C@@H]1CN(CC(=O)N2c3cc(Cc4ccc(F)cc4)c(CN4CCOCC4)nc3OC[C@@H]2C)[C@@H](CN2[C@H](C)COC[C@H]2C)CN1 [Compound 92]	8.7	0.53	0.37
COC[C@@H]1COCCN1C[C@H]1CN[C@H](C)CN1CC(=O)N1c2cc(Cc3ccc(F)cc3)c(CO)nc2OC[C@@H]1C [Compound 52, 1-((S)-7-(4-fluorobenzyl)-6-(hydroxymethyl)-2-methyl-2,3-dihydro-1H-pyrido[2,3-b][1,4]oxazin-1-yl)-2-((2R,5R)-2-(((R)-3-(methoxymethyl)morpholino)methyl)-5-methylpiperazin-1-yl)ethan-1-one]	13	1.1	0.55
C[C@@H]1CN(CC(=O)N2c3cc(Cc4ccc(F)cc4)c(CO)nc3OC[C@@H]2C)[C@@H](CN2CCOC[C@@H]2C(F)(F)F)CN1 [Compound 91B, 1-((S)-7-(4-fluorobenzyl)-6-(hydroxymethyl)-2-methyl-2,3-dihydro-1H-pyrido[2,3-b][1,4]oxazin-1-yl)-2-((2R,5R)-5-methyl-2-(((R)-3-(trifluoromethyl)morpholino)methyl)piperazin-1-yl)ethan-1-one]	543	108	47
C[C@@H]1CN(CC(=O)N2c3cc(Cc4ccc(F)cc4F)c(CO)nc3OC[C@@H]2C)[C@@H](CN2[C@H](C)COC[C@H]2C)CN1 [Example 60, 1-((S)-7-(2,4-difluorobenzyl)-6-(hydroxymethyl)-2-methyl-2,3-dihydro-1H-pyrido[2,3-b][1,4]oxazin-1-yl)-2-((2R,5R)-2-(((3R,5R)-3,5-dimethylmorpholino)methyl)-5-methylpiperazin-1-yl)ethan-1-one]	7.5	0.34	0.13
C[C@@H]1CN(CC(=O)N2CCOc3nc(C#N)c(Cc4ccc(F)cc4)cc32)[C@@H](CN2CCOC[C@H]2C)CN1 [Compound 1, 7-(4-fluorobenzyl)-1-(2-((2R,5R)-5-methyl-2-(((R)-3-methylmorpholino)methyl)piperazin-1-yl)acetyl)-2,3-dihydro-1H-pyrido[2,3-b][1,4]oxazine-6-carbonitrile formate]	26	0.9	0.5
CCOC[C@H]1COc2ncc(Cc3ccc(F)cc3)cc2N1C(=O)CN1C[C@@H](C)NC[C@@H]1CN1CCOC[C@H]1C [Compound 37, 1-((S)-2-(ethoxymethyl)-7-(4-fluorobenzyl)-2,3-dihydro-1H-pyrido[2,3-b][1,4]oxazin-1-yl)-2-((2R,5R)-5-methyl-2-(((R)-3-methylmorpholino)methyl)piperazin-1-yl)ethan-1-one]	43	0.66	0.29
C[C@@H]1CN(CC(=O)N2c3cc(Cc4ccc(F)cc4)c(CO)nc3OC[C@@H]2C)[C@@H](CN2C[C@H](C)OC[C@H]2C)CN1 [Compound 49]	3.6	0.48	0.3
C[C@@H]1CN(CC(=O)N2c3cc(Cc4ccc(F)cc4)c(N4CCOCC4)nc3OC[C@@H]2C)[C@@H](CN2[C@H](C)COC[C@H]2C)CN1 [Compound 106, 2-((2R,5R)-2-(((3R,5R)-3,5-dimethylmorpholino)methyl)-5-methylpiperazin-1-yl)-1-((S)-7-(4-fluorobenzyl)-2-methyl-6-morpholino-2,3-dihydro-1H-pyrido[2,3-b][1,4]oxazin-1-yl)ethan-1-one]	16.9	0.94	0.33
C[C@@H]1CN(CC(=O)N2c3cc(Cc4ccc(F)cc4)c(CO)nc3OC[C@@H]2C)[C@@H](CN2C3CCC2COC3)CN1 [Compound 86]	15	0.95	0.89
C[C@@H]1CN(CC(=O)N2CCOc3ncc(Cc4ccc(F)cc4)cc32)[C@@H](CN2CCOC[C@H]2C)CN1 [Compound 2, 1-(7-(4-fluorobenzyl)-2,3-dihydro-1H-pyrido[2,3-b][1,4]oxazin-1-yl)-2-((2R,5R)-5-methyl-2-(((R)-3-methylmorpholino)methyl)piperazin-1-yl)ethan-1-one formate]	24	2.5	0.9
COC[C@H]1COc2nc(CO)c(Cc3ccc(F)cc3)cc2N1C(=O)CN1C[C@@H](C)NC[C@@H]1CN1CCOC[C@H]1C [Compound 57, 1-((S)-7-(4-fluorobenzyl)-6-(hydroxymethyl)-2-(methoxymethyl)-2,3-dihydro-1H-pyrido[2,3-b][1,4]oxazin-1-yl)-2-((2R,5R)-5-methyl-2-(((R)-3-methylmorpholino)methyl)piperazin-1-yl)ethan-1-one]	95	1.9	1.2
C[C@@H]1CN(CC(=O)N2c3cc(Cc4ccc(F)cc4)cnc3OC[C@@H]2COc2ccccc2)[C@@H](CN2[C@H](C)COC[C@H]2C)CN1 [Compound 40, 2-((2R,5R)-2-(((3R,5R)-3,5-dimethylmorpholino)methyl)-5-methylpiperazin-1-yl)-1-((S)-7-(4-fluorobenzyl)-2-(phenoxymethyl)-2,3-dihydro-1H-pyrido[2,3-b][1,4]oxazin-1-yl)ethan-1-one]	8.2	0.14	0.09
